Measured values from patent US10239835B2, “N-alkylaryl-5-oxyaryl-octahydro-cyclopenta[c]pyrrole negative allosteric modulators of NR2B” (Luc Therapeutics, Inc., priority 2014, dated 2019).
Like-named read-outs stand apart in the source and are kept apart here.

Columns and labels:
[1] = molecular target: HEK293 cells expressing NR1/NR2B (Homo sapiens (Human), UniProt Q13224); test: NR2B NAM Assay (FDSS Ca2+ influx cell assay); assay type: cell-based
Method: (§1) Cell Culture and plating: HEK293 cells expressing NR1/NR2B (Chantest, Cleveland, Ohio) were grown to 70-80% confluency as an adherent monolayer in standard tissue culture flasks at 37° C., 5% CO2 per supplier's instructions. NR2B expression was induced by incubation with 0.3-0.4 μg/ml tetracycline in the presence of 4 mM ARL-15896 for 18-24 hours under the same growth conditions, then transferred to 30° C. for another 3-5 hours.
(§2) After induction, cell culture medium was removed and cells were rinsed once with Ca^2+ and Mg^2+-free Dulbecco's phosphate buffered saline. Cells were then removed from the flask using TrypLE™ Express (Life Technologies) according to the manufacturer's instructions and collected to 50 ml centrifuge tubes. Following two washes in Ca^2+/Mg^2+-free HBSS with 20 mM HEPES (HHnoCa), cells were counted and viability assessed using trypan blue. To load cells with Ca^2+-sensitive dye, they were resuspended in fluo-8 plus Component B (AAT Bioquest Products) diluted in HHnoCa and incubated 15 minutes at 37° C., followed by 30 minutes at room temp (in dark). Cells were then washed and resuspended in HHnoCa to remove extracellular dye and plated in 384-well plates (Falcon, uncoated) at 20,000-30,000 cells/well in a final volume of 25 μl/well.
(§3) FDSS Assay: To each well of the plate, 10 μL test compound, control (MK801) or HHnoCa buffer was added at different concentrations to yield final concentrations of 0.001, 0.003, 0.010, 0.030, 0.100, 0.300, 1.000, 3.000, 10.000, or 30.000 uM final concentration of DMSO of 0.1%. Following 10 minutes pre-incubation in the dark, plates are loaded onto the Hamamatsu FDSS 6000. After collecting baseline fluorescence images, 3 μM glutamate, 3 μM glycine, and 1 mM Ca^2+ in HHnoCa buffer is added to each well, and Ca^2+ is recorded for 3 minutes. Data were processed by computing ratio of fluorescence at the end of data collection to baseline fluorescence to assess degree of Ca^2+ influx inhibition relative to that observed in MK801.
(§4) Table 8 below provides activity of each compound according to the legend that “++++” indicates inhibition at a concentration<100 nM; “+++” indicates inhibition at a concentration between 100 nM and 1 μM of the disclosed compound; “++” indicates inhibition at a concentration of from 1 μM to 10 μM; and “+” indicates inhibition at a concentration>10 μM.

[2] = molecular target: HEK293 cells expressing NR1/NR2B (Homo sapiens (Human), UniProt Q05586+Q13224); test: NR2B NAM Assay (FDSS Ca2+ influx cell assay); assay type: cell-based; conditions: NR2B NAM assay, class of inhibitory concentration; read-out: Activity Category
Sequence of HEK293 cells expressing NR1/NR2B (Homo sapiens (Human), UniProt Q05586+Q13224) (Q13224 27-1484, other chains not shown): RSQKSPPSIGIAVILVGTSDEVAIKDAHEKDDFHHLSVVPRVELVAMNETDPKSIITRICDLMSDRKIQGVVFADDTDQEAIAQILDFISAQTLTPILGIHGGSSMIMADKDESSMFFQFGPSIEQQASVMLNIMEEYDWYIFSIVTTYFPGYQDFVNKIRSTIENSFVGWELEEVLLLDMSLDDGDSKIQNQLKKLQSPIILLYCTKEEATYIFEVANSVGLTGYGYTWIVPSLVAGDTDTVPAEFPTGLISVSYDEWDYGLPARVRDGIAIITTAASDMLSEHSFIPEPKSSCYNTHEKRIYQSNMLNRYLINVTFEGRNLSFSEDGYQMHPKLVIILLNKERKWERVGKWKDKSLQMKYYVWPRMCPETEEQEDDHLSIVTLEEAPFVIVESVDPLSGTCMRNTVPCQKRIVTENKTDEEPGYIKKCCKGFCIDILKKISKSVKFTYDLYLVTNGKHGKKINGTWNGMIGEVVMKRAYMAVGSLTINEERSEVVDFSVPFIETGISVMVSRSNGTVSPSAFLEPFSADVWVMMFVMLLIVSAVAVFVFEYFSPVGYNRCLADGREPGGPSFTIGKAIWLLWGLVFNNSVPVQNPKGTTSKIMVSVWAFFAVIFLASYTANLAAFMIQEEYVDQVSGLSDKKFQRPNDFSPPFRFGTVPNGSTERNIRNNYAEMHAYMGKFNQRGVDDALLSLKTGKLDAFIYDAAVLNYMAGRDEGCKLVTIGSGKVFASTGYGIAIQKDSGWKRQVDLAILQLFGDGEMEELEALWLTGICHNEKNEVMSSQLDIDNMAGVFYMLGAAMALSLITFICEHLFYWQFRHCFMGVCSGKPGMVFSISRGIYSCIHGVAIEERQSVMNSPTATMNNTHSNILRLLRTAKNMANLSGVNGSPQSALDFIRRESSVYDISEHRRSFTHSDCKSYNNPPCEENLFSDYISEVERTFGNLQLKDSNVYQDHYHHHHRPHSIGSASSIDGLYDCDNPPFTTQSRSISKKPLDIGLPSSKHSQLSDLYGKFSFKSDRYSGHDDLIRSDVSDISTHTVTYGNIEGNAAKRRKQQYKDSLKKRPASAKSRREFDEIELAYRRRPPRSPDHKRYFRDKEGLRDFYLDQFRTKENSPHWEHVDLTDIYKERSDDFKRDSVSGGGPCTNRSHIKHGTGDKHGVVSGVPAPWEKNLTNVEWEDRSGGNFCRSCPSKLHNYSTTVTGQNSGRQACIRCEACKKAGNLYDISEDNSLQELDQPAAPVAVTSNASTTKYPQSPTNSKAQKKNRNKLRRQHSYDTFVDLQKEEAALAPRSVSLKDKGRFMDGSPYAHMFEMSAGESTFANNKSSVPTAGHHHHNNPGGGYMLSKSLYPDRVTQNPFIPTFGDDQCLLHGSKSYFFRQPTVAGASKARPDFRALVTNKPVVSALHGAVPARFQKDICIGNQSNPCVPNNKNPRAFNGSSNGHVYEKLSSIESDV
Method: as §1, §2, §3, §4

[3] = Ca2+ influx inhibition relative to MK801, 3 μM glutamate, 3 μM glycine, 1 mM Ca2+, read-out: NR2B NAM IC50

Sequence of HEK293 cells expressing NR1/NR2B (Homo sapiens (Human), UniProt Q13224) (Q13224 27-1484, other chains not shown): as above

Structure (SMILES)	IC50 [1, 3]	IC50 [2]	IC50 ([1]; NR2B NAM assay, class of inhibitory concentration, read-out: Activity Category)
Oc1ccc(C(O)CN2C[C@H]3C[C@H](Oc4ccc(F)c(F)c4)C[C@H]3C2)cc1 (stereo partly drawn)	0.014 µM	< 0.1 µM	
Oc1ccc(C(O)CN2C[C@H]3C[C@@H](Oc4ccc(F)cc4)C[C@H]3C2)cc1F (stereo partly drawn)	0.0305 µM	< 0.1 µM	
Cc1ccc(O[C@H]2C[C@@H]3CN(CC(=O)c4ccc(O)c(F)c4)C[C@@H]3C2)cn1	2.37 µM	1 to 10 µM	
Cc1ccc(O[C@H]2C[C@@H]3CN(CC(O)c4ccc(O)c(F)c4)C[C@@H]3C2)cn1 (stereo partly drawn)	0.09 µM	< 0.1 µM	
Oc1ccc(C(O)CN2C[C@H]3C[C@@H](Oc4ccc(F)cc4)C[C@H]3C2)cc1 (stereo partly drawn)	0.0178 µM	< 0.1 µM	
Oc1ccc(C(O)CN2C[C@H]3C[C@H](Oc4ccncc4)C[C@H]3C2)cc1 (stereo partly drawn)	4.47 µM	1 to 10 µM	
Cc1ncccc1O[C@H]1C[C@@H]2CN(CC(=O)c3ccc(O)cc3)C[C@@H]2C1	0.134 µM	0.1 to 1 µM	
Cc1ncccc1O[C@H]1C[C@@H]2CN(CC(O)c3ccc(O)cc3)C[C@@H]2C1 (stereo partly drawn)	0.188 µM	0.1 to 1 µM	
Oc1ccc(C(O)CN2C[C@H]3C[C@@H](Oc4cccnc4)C[C@H]3C2)cc1 (stereo partly drawn)	8 µM	1 to 10 µM	
O=C(CN1C[C@H]2C[C@H](Oc3cccc4cnccc34)C[C@H]2C1)c1ccc(O)cc1	0.409 µM	0.1 to 1 µM	
Oc1ccc(C(O)CN2C[C@H]3C[C@H](Oc4cccc5cnccc45)C[C@H]3C2)cc1 (stereo partly drawn)	0.191 µM	0.1 to 1 µM	
Oc1ccc(C(O)CN2C[C@H]3C[C@@H](Oc4ccc(F)c(F)c4)C[C@H]3C2)nc1 (stereo partly drawn)	0.0376 µM	< 0.1 µM	
Oc1ccc(C(O)CN2C[C@H]3C[C@H](Oc4ccccc4)C[C@H]3C2)cc1 (stereo partly drawn)	0.00596 µM	< 0.1 µM	
OC(CN1C[C@H]2C[C@H](Oc3ccc(F)cc3)C[C@H]2C1)c1cn[nH]c1 (stereo partly drawn) [drawing 268]	1.98 µM		1 to 10 µM

Continued, values first:

IC50 [1, 3]	IC50 [2]	IC50 ([1]; NR2B NAM assay, class of inhibitory concentration, read-out: Activity Category)	Structure (SMILES)
0.0616 µM	< 0.1 µM		O=C(CN1C[C@H]2C[C@H](Oc3ccc(F)c(F)c3)C[C@H]2C1)c1ccc(O)cc1
0.112 µM	0.1 to 1 µM		COc1ccc(O[C@@H]2C[C@@H]3CN(CC(O)c4ccc(O)cc4)C[C@@H]3C2)cc1 (stereo partly drawn)
7.1 µM	1 to 10 µM		COc1ccc(O[C@@H]2C[C@@H]3CN(CC(=O)c4ccc(O)cn4)C[C@@H]3C2)cc1
2.78 µM	1 to 10 µM		O=C(CN1C[C@H]2C[C@H](Oc3ccncc3)C[C@H]2C1)c1ccc(O)cc1
10 µM	> 10 µM		COc1ccc(O[C@H]2C[C@@H]3CN(CC(=O)c4ccc(O)c(F)n4)C[C@@H]3C2)cc1
3.29 µM	1 to 10 µM		COc1ccc(O[C@H]2C[C@@H]3CN(CC(O)c4ccc(O)c(F)n4)C[C@@H]3C2)cc1 (stereo partly drawn)
5.22 µM	1 to 10 µM		O=C(CN1C[C@H]2C[C@@H](Oc3cccnc3)C[C@H]2C1)c1ccc(O)cc1
10 µM	> 10 µM		N#Cc1cccc(O[C@H]2C[C@@H]3CN(CC(=O)c4ccc(O)cn4)C[C@@H]3C2)c1
0.44 µM	0.1 to 1 µM		COc1ccc(O[C@@H]2C[C@@H]3CN(CC(O)c4ccc(O)cn4)C[C@@H]3C2)cc1 (stereo partly drawn)
10 µM	> 10 µM		N#Cc1ccc(O[C@@H]2C[C@@H]3CN(CC(=O)c4ccc(O)cn4)C[C@@H]3C2)cc1
0.0686 µM	< 0.1 µM		O=C(CN1C[C@H]2C[C@@H](Oc3ccc(F)c(F)c3)C[C@H]2C1)c1ccc(O)cc1
0.0107 µM	< 0.1 µM		O=C(CN1C[C@H]2C[C@H](Oc3ccccc3)C[C@H]2C1)c1ccc(O)cc1
10 µM	> 10 µM		O=C(CN1C[C@H]2C[C@H](Oc3cccnc3F)C[C@H]2C1)c1ccc(O)cn1
